According to BigSolDB 2.1:

CCCN(CCc1cccs1)[C@H]1CCc2c(O)cccc2C1
solubility (mole fraction)
Conditions | in ethanol | in ethyl acetate | in isopropanol | in isopropyl acetate | in methanol | in methyl acetate | in n-butanol | in n-butyl acetate | in n-propanol | in n-propyl acetate
278.15 K | 0.00236 | 0.0243 | 0.00273 | 0.0201 | 0.00131 | 0.0124 | 0.00758 | 0.0311 | 0.00555 | 0.0247
283.15 K | 0.00398 | 0.0303 | 0.00418 | 0.0257 | 0.00249 | 0.0167 | 0.0105 | 0.0368 | 0.00758 | 0.0305
288.15 K | 0.00677 | 0.0369 | 0.00598 | 0.0314 | 0.00379 | 0.0211 | 0.0129 | 0.0433 | 0.0103 | 0.0371
293.15 K | 0.00912 | 0.0437 | 0.00845 | 0.0381 | 0.00531 | 0.0262 | 0.0163 | 0.051 | 0.0138 | 0.0435
298.15 K | 0.012 | 0.0512 | 0.0105 | 0.046 | 0.00696 | 0.0323 | 0.0222 | 0.0597 | 0.0175 | 0.052
303.15 K | 0.0183 | 0.0601 | 0.0163 | 0.0553 | 0.0107 | 0.0393 | 0.0306 | 0.0688 | 0.0237 | 0.0612
308.15 K | 0.0239 | 0.0707 | 0.0219 | 0.0661 | 0.0161 | 0.0482 | 0.0387 | 0.08 | 0.0298 | 0.0716
313.15 K | 0.0345 | 0.0812 | 0.0311 | 0.0782 | 0.0248 | 0.0587 | 0.0467 | 0.0915 | 0.0399 | 0.0834
